Here are results for 20 compounds from ChEMBL document CHEMBL1201862, “PubChem BioAssay data set” (2004).

A word on the AC50: it is the concentration at which the activity in the assay is half-maximal. For orientation: IC50 means the concentration that gives 50% inhibition. Broadly, the EC50 is the concentration at which the effect is half-maximal. Usually CC50 stands for the concentration at which the toxic effect on the cells reaches its halfway point.

Each structure is given as a SMILES string. Calls of active or inactive are those of the source. A value given as a limit tells only on which side of the number the result lay.

One series addresses Cytochrome P450 3A4 (Homo sapiens, UniProt P08684).
The target of another series is Cytochrome P450 2C9 (Homo sapiens, UniProt P11712).
Cytochrome P450 2C9, sequence (P11712 whole entry): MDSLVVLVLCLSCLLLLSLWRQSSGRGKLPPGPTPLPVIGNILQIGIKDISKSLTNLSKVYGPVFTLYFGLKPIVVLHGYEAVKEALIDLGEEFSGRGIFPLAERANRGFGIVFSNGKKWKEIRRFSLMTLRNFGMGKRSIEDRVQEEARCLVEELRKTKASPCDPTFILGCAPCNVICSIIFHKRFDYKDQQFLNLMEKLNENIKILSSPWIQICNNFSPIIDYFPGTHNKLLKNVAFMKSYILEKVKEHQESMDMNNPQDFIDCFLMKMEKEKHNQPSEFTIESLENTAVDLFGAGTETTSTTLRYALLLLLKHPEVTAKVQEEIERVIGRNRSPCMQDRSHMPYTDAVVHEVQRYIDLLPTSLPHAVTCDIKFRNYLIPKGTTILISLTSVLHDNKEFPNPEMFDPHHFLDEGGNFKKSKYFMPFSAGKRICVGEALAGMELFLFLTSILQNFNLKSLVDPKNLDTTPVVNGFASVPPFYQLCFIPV
Another series deals with HeLa. Nature of the series: HeLa cell cytotoxicity, dose response, cytotoxicity control for MITF activator project, CellTiter-Glo luminescence, cherry-pick samples (AID 540259). It is filed as functional, cell-based. The settings on record: Homo sapiens.
Series [1] concerns the target G-protein coupled receptor 55 (Homo sapiens, UniProt Q9Y2T6). Briefly: GPR55 antagonists blocking LPI-driven arrestin recruitment, primary screen, imaging, U2OS, beta-arrestin-GFP, LPI agonist (AID 2013).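 Also: antagonist potency measured as reduced agonist-driven arrestin aggregation.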 The format is functional. (In general: Recruitment of arrestin is a read-out of receptor activation apart from second messengers.)
The target of series [2] is T1, High affinity choline transporter 1 (Homo sapiens, UniProt Q9GZV3).
T1 sequence (Q9GZV3 whole entry): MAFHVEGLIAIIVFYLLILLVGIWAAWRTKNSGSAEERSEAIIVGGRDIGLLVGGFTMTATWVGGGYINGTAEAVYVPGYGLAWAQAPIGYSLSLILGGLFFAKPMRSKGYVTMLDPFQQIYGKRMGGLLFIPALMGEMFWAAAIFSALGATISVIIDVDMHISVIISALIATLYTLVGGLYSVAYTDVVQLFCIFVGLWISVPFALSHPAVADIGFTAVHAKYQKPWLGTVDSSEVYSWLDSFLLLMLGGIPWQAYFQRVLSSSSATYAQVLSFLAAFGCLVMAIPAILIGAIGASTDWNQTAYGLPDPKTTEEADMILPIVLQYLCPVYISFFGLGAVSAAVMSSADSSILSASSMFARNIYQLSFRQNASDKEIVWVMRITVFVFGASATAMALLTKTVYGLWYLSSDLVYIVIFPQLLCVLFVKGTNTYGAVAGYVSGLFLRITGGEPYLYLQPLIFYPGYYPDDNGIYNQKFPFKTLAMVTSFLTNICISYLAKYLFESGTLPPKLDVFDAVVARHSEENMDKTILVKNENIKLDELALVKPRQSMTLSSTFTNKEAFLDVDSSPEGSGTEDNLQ
Briefly: CHT inhibitors, dose response, cell-based, 5-point CRC, membrane potential dye (AID 504840). It is filed as functional.

A further series concerns the target T2, Cytochrome P450 1A2 (Homo sapiens, UniProt P05177).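 Also: PubChem cytochrome P450 panel assay, CYP1A2 panel member.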
T2 sequence (P05177 whole entry): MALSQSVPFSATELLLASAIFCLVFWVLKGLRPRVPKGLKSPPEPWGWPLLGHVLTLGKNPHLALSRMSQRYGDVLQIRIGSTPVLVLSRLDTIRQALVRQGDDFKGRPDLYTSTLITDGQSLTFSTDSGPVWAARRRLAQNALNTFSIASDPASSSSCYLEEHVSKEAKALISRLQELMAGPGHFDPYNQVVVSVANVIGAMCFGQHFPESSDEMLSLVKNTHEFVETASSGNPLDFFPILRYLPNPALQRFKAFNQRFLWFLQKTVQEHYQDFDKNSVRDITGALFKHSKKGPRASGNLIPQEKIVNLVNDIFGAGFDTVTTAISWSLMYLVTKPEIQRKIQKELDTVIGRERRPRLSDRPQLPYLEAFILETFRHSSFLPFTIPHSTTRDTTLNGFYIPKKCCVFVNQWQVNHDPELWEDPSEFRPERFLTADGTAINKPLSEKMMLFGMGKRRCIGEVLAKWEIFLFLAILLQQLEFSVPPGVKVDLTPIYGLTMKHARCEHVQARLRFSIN

Series [3] has as its target Voltage-dependent T-type calcium channel subunit alpha-1H (Homo sapiens, UniProt O95180). It is filed as functional.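 Also: channel activity triggered by adding a high calcium stimulation buffer.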
Series [4] in a line: A cytotoxicity screen of small molecule inhibitors of the PhoP region in Salmonella typhi identified in the primary screen. [Related pubchem assays: 1850, 1864, 1985 ]. It is filed as functional.
A short description of series [5]: HEp-2 cell cytotoxicity, dose response, cytotoxicity control for RSV inhibitor project, HTS (AID 2410). It is filed as functional. As to conditions: human respiratory syncytial virus.
Series [6] is described as follows: inhibitors of intracellular T. cruzi replication, confirmation, NIH3T3 host cells, beta-gal luminescence (AID 2044).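 Also: intracellular parasites grown in NIH/3T3 mouse fibroblasts as host cells; luminescent beta-galactosidase reporter signal from transgenic T. cruzi replicating inside host cells; inhibitors lower the luminescence signal.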 The format is functional, cell-based.
Series [7] is described as follows: cytotoxicity toward NIH3T3 fibroblasts, dose response, counter-screen, cell-based, ATP luminescence, mouse fibroblasts (AID 2010).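 Also: cells exposed to compound for about 90 hours before reading.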 The format is functional.
Series [8] concerns the target T3, Replicative DNA helicase DnaB (Mycobacterium tuberculosis, UniProt P9WMR3).
T3 sequence (P9WMR3 whole entry): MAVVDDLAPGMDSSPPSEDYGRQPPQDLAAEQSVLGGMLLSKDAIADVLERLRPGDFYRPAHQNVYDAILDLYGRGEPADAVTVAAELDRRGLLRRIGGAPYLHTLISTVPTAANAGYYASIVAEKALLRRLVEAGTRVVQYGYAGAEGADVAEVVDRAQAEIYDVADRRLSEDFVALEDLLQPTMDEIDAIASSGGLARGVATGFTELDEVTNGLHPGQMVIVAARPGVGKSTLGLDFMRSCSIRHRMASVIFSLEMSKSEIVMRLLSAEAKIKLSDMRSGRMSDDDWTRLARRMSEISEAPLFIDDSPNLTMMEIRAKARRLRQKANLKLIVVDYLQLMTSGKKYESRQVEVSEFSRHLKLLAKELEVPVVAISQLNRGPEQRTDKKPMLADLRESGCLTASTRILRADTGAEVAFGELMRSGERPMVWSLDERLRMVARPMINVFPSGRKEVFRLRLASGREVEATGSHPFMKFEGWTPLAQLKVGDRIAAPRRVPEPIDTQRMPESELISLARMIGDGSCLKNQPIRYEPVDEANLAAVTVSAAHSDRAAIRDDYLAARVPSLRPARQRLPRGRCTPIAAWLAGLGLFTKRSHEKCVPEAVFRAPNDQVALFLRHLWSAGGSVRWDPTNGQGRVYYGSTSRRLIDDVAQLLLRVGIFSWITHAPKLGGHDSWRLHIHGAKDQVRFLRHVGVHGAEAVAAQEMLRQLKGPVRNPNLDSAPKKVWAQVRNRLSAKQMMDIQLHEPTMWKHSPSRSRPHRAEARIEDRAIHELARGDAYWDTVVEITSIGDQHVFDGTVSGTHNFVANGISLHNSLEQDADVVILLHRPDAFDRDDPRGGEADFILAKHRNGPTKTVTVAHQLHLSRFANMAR
Briefly: DnaB intein splicing inhibitors, dose response, biochemical, cell-free fluorescence (AID 449749). It is filed as functional.

A further series deals with T4, Protein RecA (Mycobacterium tuberculosis, UniProt P9WHJ3).
T4 sequence (P9WHJ3 whole entry): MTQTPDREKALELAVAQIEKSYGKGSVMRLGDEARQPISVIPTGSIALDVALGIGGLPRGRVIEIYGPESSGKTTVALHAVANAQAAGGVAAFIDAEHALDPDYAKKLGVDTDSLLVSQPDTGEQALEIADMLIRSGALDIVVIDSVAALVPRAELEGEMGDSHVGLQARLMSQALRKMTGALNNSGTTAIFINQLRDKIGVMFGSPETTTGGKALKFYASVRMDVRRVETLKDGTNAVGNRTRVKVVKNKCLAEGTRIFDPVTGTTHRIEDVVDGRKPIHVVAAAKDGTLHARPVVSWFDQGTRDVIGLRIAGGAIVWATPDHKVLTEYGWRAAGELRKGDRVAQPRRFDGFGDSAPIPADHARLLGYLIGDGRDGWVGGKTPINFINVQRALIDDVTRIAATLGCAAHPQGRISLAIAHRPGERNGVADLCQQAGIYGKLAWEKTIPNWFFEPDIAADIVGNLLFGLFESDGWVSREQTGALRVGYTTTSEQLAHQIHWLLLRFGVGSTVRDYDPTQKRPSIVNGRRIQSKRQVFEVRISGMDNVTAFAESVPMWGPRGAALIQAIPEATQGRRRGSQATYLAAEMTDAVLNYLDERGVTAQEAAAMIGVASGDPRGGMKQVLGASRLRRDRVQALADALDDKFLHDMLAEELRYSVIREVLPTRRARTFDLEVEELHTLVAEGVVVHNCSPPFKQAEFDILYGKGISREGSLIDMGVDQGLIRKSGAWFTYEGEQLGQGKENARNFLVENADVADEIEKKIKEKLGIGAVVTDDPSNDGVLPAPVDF
Briefly: Fluorescence Cell-Free Homogeneous Dose Retest to Identify Inhibitors of RecA-Intein Splicing Activity. [Related pubchem assays (depositor defined):AID2097, AID2223, AID489010, AID492950]. It is filed as functional.

For a further series, the target named is Cytochrome P450 2C19 (Homo sapiens, UniProt P33261). Nature of the series: Cytochrome panel assay with activity outcomes. Panel member name: p450-cyp2c19 Compounds with AC50 equal or less than 10 uM are considered active. The format is functional. The settings on record: read-out: AC50.
Cytochrome P450 2C19, sequence (P33261 whole entry): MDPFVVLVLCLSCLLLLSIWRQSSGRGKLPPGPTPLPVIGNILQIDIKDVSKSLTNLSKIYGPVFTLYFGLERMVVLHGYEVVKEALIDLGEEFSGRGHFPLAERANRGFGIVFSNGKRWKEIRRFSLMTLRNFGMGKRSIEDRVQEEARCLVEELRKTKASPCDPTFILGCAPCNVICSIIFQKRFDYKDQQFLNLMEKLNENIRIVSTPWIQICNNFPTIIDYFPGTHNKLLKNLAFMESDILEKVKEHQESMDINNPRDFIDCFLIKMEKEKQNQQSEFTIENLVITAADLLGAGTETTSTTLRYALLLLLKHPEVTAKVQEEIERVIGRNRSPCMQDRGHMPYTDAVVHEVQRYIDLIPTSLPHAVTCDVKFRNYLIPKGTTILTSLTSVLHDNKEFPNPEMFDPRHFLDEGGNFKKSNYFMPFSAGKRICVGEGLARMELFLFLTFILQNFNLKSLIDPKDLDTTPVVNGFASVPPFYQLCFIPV
The nature of series [9]: Luminescence Cell-Based Dose Retest to Confirm Inhibitors of Cancer Stem Cells. [Related pubchem assays (depositor defined):AID2717, AID2721]. As to conditions: Homo sapiens. The format is functional.
Another series addresses Genome polyprotein (dengue virus type 2, UniProt P29990). Nature of the series: Dengue-2 NS5 methyltransferase inhibitors, primary screen, biochemical, confirmation dose response (AID 588689). The format is functional.

G-protein coupled receptor 55, sequence (Q9Y2T6 whole entry): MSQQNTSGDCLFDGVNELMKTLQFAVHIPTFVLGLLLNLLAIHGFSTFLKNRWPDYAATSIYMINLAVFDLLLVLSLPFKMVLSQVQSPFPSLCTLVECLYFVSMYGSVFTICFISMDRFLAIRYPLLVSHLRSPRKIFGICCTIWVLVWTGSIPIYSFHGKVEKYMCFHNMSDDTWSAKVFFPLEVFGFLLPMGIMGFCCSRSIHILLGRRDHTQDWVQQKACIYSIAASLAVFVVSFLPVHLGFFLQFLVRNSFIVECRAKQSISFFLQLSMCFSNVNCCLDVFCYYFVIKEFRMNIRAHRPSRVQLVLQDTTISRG
Cytochrome P450 3A4, sequence (P08684 whole entry): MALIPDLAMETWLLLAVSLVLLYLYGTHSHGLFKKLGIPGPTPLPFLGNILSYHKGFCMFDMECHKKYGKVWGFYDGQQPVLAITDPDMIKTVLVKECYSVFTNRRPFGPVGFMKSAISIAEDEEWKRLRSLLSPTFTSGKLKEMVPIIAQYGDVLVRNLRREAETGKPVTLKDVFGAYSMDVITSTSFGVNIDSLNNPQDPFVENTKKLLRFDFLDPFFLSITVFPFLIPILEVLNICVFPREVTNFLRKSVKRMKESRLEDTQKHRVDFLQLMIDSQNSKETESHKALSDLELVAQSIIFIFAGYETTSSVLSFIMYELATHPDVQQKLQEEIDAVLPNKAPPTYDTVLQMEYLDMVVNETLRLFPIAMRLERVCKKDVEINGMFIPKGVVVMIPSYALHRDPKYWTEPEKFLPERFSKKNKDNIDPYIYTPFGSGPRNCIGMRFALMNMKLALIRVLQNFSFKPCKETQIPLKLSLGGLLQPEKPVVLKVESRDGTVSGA
Genome polyprotein, sequence (P29990 2492-3391 limits assumed): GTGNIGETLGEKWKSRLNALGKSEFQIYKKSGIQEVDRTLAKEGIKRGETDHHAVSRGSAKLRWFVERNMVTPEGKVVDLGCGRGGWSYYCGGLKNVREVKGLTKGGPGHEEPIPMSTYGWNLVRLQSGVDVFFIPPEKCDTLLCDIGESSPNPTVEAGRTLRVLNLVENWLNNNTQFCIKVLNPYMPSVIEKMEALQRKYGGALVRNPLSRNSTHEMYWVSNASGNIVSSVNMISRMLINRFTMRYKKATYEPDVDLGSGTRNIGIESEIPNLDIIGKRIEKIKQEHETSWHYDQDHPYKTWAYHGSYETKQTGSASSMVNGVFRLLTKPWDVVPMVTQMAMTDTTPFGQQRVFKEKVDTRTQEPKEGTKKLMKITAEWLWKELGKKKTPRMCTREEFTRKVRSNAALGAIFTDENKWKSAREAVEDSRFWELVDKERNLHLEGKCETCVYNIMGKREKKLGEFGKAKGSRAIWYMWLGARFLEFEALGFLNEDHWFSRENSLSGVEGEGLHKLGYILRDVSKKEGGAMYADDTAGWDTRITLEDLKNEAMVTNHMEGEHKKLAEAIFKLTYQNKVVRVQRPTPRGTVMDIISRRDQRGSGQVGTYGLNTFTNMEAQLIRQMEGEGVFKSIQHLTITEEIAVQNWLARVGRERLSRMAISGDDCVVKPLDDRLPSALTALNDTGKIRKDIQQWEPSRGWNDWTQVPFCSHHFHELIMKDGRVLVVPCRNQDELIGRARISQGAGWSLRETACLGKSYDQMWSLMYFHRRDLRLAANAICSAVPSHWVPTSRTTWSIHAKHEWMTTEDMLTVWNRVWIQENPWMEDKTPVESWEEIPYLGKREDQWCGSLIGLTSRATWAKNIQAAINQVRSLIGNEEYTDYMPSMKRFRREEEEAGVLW
Voltage-dependent T-type calcium channel subunit alpha-1H, sequence (O95180 whole entry): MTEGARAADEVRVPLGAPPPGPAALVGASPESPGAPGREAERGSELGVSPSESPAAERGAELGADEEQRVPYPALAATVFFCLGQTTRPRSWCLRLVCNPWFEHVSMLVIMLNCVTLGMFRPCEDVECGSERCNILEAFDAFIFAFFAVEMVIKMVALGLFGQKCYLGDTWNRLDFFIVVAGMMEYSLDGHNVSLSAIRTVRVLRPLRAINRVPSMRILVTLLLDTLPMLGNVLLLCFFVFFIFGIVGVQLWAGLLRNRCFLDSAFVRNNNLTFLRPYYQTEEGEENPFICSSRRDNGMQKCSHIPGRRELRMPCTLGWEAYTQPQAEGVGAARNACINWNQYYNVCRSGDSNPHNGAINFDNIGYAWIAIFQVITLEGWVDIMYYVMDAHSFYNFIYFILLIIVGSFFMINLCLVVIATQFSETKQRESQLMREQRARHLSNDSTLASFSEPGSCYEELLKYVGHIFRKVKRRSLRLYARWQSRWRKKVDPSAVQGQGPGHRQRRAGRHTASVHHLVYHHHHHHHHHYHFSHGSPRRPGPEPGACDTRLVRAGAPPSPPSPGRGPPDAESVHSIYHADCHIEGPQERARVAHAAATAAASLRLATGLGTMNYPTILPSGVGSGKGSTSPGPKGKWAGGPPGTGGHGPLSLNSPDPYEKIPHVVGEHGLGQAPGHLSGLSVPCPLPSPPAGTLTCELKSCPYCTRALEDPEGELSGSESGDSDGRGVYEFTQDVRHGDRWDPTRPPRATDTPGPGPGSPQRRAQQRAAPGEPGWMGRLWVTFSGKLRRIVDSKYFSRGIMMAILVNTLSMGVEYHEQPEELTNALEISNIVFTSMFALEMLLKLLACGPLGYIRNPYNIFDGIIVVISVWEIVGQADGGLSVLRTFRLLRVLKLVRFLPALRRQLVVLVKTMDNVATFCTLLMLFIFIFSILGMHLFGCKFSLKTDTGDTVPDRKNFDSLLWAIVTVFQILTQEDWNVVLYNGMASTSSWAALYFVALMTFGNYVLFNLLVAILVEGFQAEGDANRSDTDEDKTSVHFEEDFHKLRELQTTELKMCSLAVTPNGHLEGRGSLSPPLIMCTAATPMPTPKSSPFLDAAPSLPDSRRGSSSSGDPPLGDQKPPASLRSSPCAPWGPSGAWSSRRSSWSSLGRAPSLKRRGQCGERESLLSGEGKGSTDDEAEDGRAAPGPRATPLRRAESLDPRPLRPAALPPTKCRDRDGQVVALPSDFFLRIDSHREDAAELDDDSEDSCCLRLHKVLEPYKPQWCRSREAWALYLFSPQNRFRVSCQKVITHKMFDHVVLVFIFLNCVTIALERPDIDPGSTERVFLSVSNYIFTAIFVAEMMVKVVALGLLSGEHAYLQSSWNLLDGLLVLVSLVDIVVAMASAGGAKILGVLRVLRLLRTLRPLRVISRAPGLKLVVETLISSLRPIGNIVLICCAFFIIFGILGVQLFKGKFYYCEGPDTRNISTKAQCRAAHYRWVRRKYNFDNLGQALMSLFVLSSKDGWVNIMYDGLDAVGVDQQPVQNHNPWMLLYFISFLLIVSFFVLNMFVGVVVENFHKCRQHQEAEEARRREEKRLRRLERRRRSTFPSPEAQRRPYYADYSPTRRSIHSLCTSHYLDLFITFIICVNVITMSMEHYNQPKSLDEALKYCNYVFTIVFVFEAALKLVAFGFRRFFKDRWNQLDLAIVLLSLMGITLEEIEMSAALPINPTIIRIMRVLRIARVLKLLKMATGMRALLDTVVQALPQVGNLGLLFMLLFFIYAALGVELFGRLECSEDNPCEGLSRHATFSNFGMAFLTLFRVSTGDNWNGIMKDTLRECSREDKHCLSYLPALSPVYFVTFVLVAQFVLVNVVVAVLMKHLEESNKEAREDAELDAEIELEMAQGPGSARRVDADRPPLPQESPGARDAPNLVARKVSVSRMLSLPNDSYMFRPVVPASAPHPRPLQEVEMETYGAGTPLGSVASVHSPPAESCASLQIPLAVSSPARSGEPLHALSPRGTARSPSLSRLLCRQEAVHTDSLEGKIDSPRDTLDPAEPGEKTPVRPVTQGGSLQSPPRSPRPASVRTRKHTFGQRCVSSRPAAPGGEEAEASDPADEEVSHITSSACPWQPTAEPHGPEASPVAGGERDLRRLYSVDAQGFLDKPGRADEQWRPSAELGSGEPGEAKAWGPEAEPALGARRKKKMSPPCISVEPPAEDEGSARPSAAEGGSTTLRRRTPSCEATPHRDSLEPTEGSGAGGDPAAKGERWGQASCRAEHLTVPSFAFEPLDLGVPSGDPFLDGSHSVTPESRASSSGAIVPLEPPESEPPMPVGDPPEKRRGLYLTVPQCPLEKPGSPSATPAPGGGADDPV

As to `CN(C)c1ncc2nc(-c3cc(F)cc(F)c3)c(=O)n(Cc3ccc(F)cc3)c2n1`, the AC50 at Cytochrome P450 3A4 is 31.6 µM (inconclusive); on Cytochrome P450 2C9, “inconclusive”. `O=C(NC1CC1)c1sc2cc(Cl)ccc2c1Cl`: the AC50 in the series on HeLa is 69.3 µM (active). Take `O=C(c1ccccc1)N1N=C(c2cccs2)CC1c1ccccc1O` (centres undefined): the IC50 in [1] was 2.72 µM (active). `Cc1ccc(Nc2cc(C)nc(-c3ccccc3)n2)cc1`: in the series on HeLa, the AC50 was 36.7 µM (active). Same read-out and setting: to `COc1ccc2c(c1)CCc1c(C(=O)NCC(C)C)noc1-2` belongs 55.1 µM (active). For `Cc1cc(O)c2cc(Cl)ccc2n1`, the AC50 entry on Cytochrome P450 2C9 is recorded as “inconclusive”. Regarding `CC1=NC(C)(C)Cc2cc(C)c(C)cc21`, the IC50 in series [2] was 13.2 µM (active).

`CCCC(=O)Nc1cccc(NC(=O)c2ccc([N+](=O)[O-])cc2Cl)c1`: the IC50 in series [2] was 15.1 µM (active).

`COc1ccc(OC)c(NC(=O)CSCc2cnn(-c3ccccc3)c2-n2cccc2)c1`: the AC50 at Cytochrome P450 1A2 was 25.1 µM (inconclusive); on Cytochrome P450 2C9, “inconclusive”. In [3], the EC50 is 4.18 µM (active). For the compound `Cn1c(=O)oc2cc(S(=O)(=O)NCCC(=O)N3CC=C(c4ccccc4)CC3)ccc21`, the AC50 on Cytochrome P450 1A2 is 31.6 µM (inconclusive); on Cytochrome P450 2C9 it was “inconclusive”. Consider `O=C(NCCCN1CCOCC1)c1ccc2c(=O)n(-c3ccc(F)c(Cl)c3)c(=S)[nH]c2c1`, for which the IC50 in [2] was 11.5 µM (active). As for `CSc1nnc(-c2sccc2OCc2ccccc2)n1C`, in series [1], the IC50 is 2.71 µM (active). In the case of `COc1ccc(-n2cnc3c(sc4nc(N5CCOCC5)c5c(c43)CCCC5)c2=O)cc1`, the EC50 in [4] was > 50 µM (active). `Cc1ccc(C)c(Nc2cc(C)nc3ccccc23)c1`: in series [5], the CC50 was 16.9 µM (active). The EC50 in series [4] was > 50 µM (active). `CC(C)(C)n1nnnc1C(c1cccs1)N(Cc1cccnc1)Cc1ccccc1Cl` (centres undefined): the concentration for a half-maximal effect (EC50) in series [6] was 0.684 µM (active); in [7] it was 15.1 µM (active); at Protein RecA it was 59 µM (active). For the same compound, the AC50 in [8] was > 120 µM (inactive). Moreover, the IC50 in [1] is 3.57 µM (active). Regarding `Cc1ccc(-n2cc(CN3CCN(Cc4nccn4C)CC3)c(-c3ccc(F)cc3)n2)cc1`, in series [2], the IC50 was 10.1 µM (active). As for `CCOCCCN1C(=O)CN(C2CCCCCC2)C(=O)C1c1ccc(OC)cc1` (centres undefined), the AC50 at Cytochrome P450 2C19 is 25.1 µM (inconclusive); on Cytochrome P450 2C9, “inconclusive”. On to `N#Cc1c(/N=C/N2CCCC2)oc(-c2ccccc2)c1-c1ccccc1`, for which the concentration at half-maximal activity (AC50) in series [9] is 1.67 µM (active). The IC50 in series [1] is 0.558 µM (active). Regarding `CNC(=O)c1ccc(-c2cc3onc(-c4ccccc4)c3c(=O)n2C)cc1`, in the series with HeLa, the AC50 was 44.9 µM (active). Consider `Cc1[nH]n(-c2ccccc2)c(=O)c1C(c1cccc([N+](=O)[O-])c1O)c1c(C)[nH]n(-c2ccccc2)c1=O`, for which, on Genome polyprotein, the IC50 was 31.6 µM (active). Moreover, the AC50 in series [8] was 1.15 µM (active). For the same compound, the EC50 was 0.931 µM (active) at Protein RecA and > 50 µM (active) in [4].
